Measured values from ChEMBL document CHEMBL5725543, “Aniline derivative, pharmaceutical composition containing same, and use thereof” (2017).

Target: Sphingosine 1-phosphate receptor 1 (Homo sapiens, UniProt P21453)
Experiment: BCA Protein Assay: Inhibitory activity evaluation was performed by multi-screen (registered trademark) HTS 96-well plate (Millipore) using the cell membrane fraction stably expressing S1P1 obtained by the above operation. 25 μL of assay solution (50 mM Tris, 100 mM sodium chloride, 5 mM magnesium chloride, 1 mM EDTA, 1 mM DTT (dithiothreitol), 10 μM GDP (guanosine diphosphate) and 0.5% BSA (bovine serum albumin), pH 7.4), 25 μL of test compounds solution diluted by assay solution and 25 μL of the membrane fraction (0.2 μg protein/μL) were added to each well, and the mixture was gently shaken at room temperature: for 30 minutes. Then, 25 μL of 35S-GTP, and 25 μL of 50 nM S1P1 receptor selective agonist (1-[4-(4-phenyl-5-trifluoromethylthiophen-2-ylmethoxy)benzyl]azetidine-3-carboxylic acid, ¿J. Med. Chem.¿, 2004, vol. 47, pp. 6662-6665, compound 18) were added to each well, respectively, and it was reacted at room temperature for 60 minutes. After the reaction, a reaction solution of each well was suction-filtered. After suction filtration, ice-colded wash solution (50 mM Tris, 100 mM sodium chloride, […] and 1 mM EDTA, pH 7.4) was added to each well, and moreover filters were washed by suction filtration. This wash procedure was performed three times. A bottom of the plate containing the filters was dried at 60° C. […]

Chain of Sphingosine 1-phosphate receptor 1 (P21453 whole entry): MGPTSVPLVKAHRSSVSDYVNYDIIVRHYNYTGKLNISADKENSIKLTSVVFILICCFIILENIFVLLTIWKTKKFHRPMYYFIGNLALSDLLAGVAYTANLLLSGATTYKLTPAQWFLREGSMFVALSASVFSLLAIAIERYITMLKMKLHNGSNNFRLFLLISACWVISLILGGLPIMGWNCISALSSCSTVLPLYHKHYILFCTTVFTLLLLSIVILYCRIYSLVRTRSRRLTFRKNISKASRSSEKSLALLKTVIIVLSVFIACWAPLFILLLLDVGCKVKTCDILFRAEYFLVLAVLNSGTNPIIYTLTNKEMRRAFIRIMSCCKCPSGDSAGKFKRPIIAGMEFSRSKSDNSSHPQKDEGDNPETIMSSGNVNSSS

IC50: 0.0112 µM
Compound: CCN(c1ccc(Cl)c(C)c1)C(CO)c1cccc(CN2CC(C(=O)O)C2)c1 (stereo unspecified)
